Assay results: patent publication US20230414826A1, “FIBRIN HYDROGELS” (Mayo Foundation for Medical Education and Research, priority 2020, published 2023)

Molecular target: T1, fibrin gels (Homo sapiens, UniProt P02671+P02675+P02679)
T1 sequence (P02671 20-644 isoform P02671-2 limits assumed): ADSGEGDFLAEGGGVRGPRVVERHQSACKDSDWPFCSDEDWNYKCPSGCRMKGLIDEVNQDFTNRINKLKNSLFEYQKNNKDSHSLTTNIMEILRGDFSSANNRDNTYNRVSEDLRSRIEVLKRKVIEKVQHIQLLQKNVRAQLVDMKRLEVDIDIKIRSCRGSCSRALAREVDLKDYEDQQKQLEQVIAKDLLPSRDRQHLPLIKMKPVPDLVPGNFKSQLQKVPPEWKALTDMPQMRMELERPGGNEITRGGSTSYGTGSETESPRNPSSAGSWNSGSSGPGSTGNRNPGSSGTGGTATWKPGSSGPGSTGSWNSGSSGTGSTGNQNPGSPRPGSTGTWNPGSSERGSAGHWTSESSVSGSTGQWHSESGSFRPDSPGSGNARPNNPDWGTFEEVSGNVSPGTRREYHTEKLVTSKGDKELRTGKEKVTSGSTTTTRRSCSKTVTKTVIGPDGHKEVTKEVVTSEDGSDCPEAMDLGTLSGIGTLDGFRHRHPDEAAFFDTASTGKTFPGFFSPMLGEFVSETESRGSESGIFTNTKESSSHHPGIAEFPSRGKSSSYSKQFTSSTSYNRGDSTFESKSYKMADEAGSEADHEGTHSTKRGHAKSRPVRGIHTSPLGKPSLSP
T1 sequence (P02675 45-491 limits assumed): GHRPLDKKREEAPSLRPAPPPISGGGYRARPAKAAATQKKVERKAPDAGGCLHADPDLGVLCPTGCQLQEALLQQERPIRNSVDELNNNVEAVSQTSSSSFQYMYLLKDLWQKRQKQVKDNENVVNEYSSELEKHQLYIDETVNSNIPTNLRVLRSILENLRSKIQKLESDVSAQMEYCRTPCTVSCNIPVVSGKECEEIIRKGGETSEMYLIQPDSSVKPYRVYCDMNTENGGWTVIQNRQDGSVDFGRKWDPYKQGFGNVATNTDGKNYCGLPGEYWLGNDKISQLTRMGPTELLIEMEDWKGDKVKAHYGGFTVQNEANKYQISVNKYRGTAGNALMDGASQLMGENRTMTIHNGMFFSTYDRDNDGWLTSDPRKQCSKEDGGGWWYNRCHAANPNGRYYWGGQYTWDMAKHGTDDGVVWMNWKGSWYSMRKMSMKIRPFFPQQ
T1 sequence (P02679 27-437 isoform P02679-2 limits assumed): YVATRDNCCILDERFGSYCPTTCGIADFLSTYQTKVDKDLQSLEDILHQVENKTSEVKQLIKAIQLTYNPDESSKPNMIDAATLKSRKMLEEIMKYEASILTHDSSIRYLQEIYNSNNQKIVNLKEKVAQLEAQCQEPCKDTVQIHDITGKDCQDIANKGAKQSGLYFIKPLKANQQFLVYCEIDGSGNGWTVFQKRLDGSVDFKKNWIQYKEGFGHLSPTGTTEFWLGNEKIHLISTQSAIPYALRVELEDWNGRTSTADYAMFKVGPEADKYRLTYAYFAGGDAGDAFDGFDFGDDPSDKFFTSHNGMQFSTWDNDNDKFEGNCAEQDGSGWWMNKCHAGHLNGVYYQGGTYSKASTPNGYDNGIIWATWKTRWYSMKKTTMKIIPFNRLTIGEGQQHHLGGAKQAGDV
Test: Fibrin gel degradation with plasminogen and tissue plasminogen activator, thickness by OCT
Conditions: 1.6 U/mL plasminogen and 17,000 U/mL tPA in PBS, 37° C., gels with 0.12% dye, n=3
Method: Fibrin gels were cast as described in the Electron Microscopy section above and hydrated in PBS. A punch was used to generate 5.0 mm×1.5 mm gels. The measured thickness of all the gels was 309±69 μm.
The fibrin gels were then submerged in a PBS solution with 1.6 U/mL plasminogen (Sigma-Aldrich; St Louis, MO) and 17,000 U/mL tissue plasminogen activator (Sigma-Aldrich) in a glass-bottom petri dish (Mattek) and incubated at 37° C. to initiate degradation as described elsewhere (see, e.g., Gandhi et al., 2018 Acta Biomater., 67:134-46). Fibrin gel thickness was monitored over time by imaging with an Envisu R2110 (Leica; Wetzlar, Germany) optical coherence tomograph (OCT) and quantified using the caliper tool within the accompanying InVivoVue software (Leica). Gel thickness was continually measured every 10 minutes until no physical evidence of the insoluble gel remained. The thickness of a gel was measured at 3 different locations (left, middle, right) on each cross-section. The measure at each location was normalized to its initial value and then averaged.
Fibrin gels produced using PBS, TB, or EB with a geometry of 1.5 mm wide×5.0 mm long×0.2 mm thick were generated. Gels were hydrated in PBS prior to incubation in a solution of tissue plasminogen activator (tPA) and plasminogen (P) at 37° C. […]

Structure (SMILES) | degradation time [min]
Cc1cc(-c2ccc(/N=N/c3ccc4c(S(=O)(=O)O)cc(S(=O)(=O)O)c(N)c4c3O)c(C)c2)ccc1/N=N/c1ccc2c(S(=O)(=O)O)cc(S(=O)(=O)O)c(N)c2c1O [EB, Evans Blue] | 78 ± 37
Cc1cc(-c2ccc(/N=N/c3c(S(=O)(=O)O)cc4cc(S(=O)(=O)O)cc(N)c4c3O)c(C)c2)ccc1/N=N/c1c(S(=O)(=O)O)cc2cc(S(=O)(=O)O)cc(N)c2c1O [TB, Trypan Blue] | 33 ± 18
